Measurements reported in article PMC11858205, “Radiolabeling and Preliminary In Vivo Evaluation of the Candidate CCR2 Targeting PET Radioligand [^11C]AZD2423” (Pharmaceuticals, 2025).

Legend:
CCR2 [1] = system: CCR2; parameters: method as in PMID 23523116, PMID 29913894; conditions: no method in this paper; read-out: CCR2 IC50 (affinity); cited from earlier work
[2] = parameters: method as in PMID 23523116, PMID 29913894; conditions: no method in this paper; cited from earlier work
Other GPCR = system: Other GPCR; parameters: method as in PMID 23523116, PMID 29913894; conditions: no method in this paper; cited from earlier work
CCR5 = system: CCR5; parameters: method as in PMID 23523116, PMID 29913894; conditions: no method in this paper; cited from earlier work
[3] = Radiometabolite analysis in arterial plasma; assay type: in vivo, rhesus monkeys
Experimental: To measure parent radioligand and radiometabolites in plasma, discrete arterial blood samples were drawn at five time points after the injection of [^11C]AZD2423. The radioligand was metabolized rather slowly (Figure 5). At 10 min after injection, approximately 80% of the radioactivity in plasma represented parent radioligand, decreasing to approximately 60% at 90 min. Most radiometabolites detected in plasma eluted with a retention time (tR) of 2.1–2.7 min and were thus less lipophilic than [^11C]AZD2423 (tR = 3.0 min). However, one metabolite with a longer retention time (tR = 3.5 min) was formed (see Supporting Information). These metabolites were not identified and further work would be required to fully characterize these unknown radiometabolites. […]
Two PET measurements were performed on the same experimental day in each of the two monkeys. […] Radioactivity in the brain was continuously measured for 123 min using the high-resolution research tomograph (HRRT; Siemens Molecular Imaging, Knoxville, TN, USA), following a preprogrammed sequence of 34 frames. Arterial blood samples were collected at specified time points (4, 15, 30, 45, and 90 min) and analyzed for radioactivity in blood and plasma, as well as for the presence of the remaining parent compound, [^11C]AZD2423.
Method description and representative radioactivity HPLC trace for radiometabolite analysis. […]

CCR2 [4] = target: T1, CCR2 (Macaca mulatta, UniProt O18793); assay: PET imaging in non-human primates at baseline and after pretreatment with AZD2423; assay type: in vivo, rhesus monkeys; conditions: for SUVpeak brain: iv; for Average VT parotid gland / Average VT thyroid gland: two-tissue compartment analysis
T1 construct: from tissue; host or cells: living rhesus monkeys: brain, thyroid gland, parotid gland, submandibular gland
T1 sequence (O18793 1-360): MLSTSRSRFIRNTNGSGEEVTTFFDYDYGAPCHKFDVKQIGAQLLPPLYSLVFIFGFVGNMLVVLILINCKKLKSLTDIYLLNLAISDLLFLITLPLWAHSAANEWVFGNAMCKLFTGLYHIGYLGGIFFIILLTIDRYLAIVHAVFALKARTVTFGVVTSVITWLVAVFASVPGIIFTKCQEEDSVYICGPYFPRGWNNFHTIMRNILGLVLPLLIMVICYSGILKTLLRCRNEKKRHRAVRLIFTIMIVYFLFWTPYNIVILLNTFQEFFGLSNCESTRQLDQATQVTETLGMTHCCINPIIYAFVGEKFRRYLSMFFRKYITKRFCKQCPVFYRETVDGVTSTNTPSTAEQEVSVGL
Experimental: To evaluate the brain exposure and regional distribution of [^11C]AZD2423 in non-human primate (NHP) brains, PET imaging studies were carried out. Thus, two 123 min dynamic brain PET measurements were performed at baseline and after pretreatment with unlabeled AZD2423 (3 mg/kg), respectively.
PET experiments were conducted on two anesthetized healthy rhesus monkeys weighing 5.3 and 4.7 kg. The study received approval from the Stockholm Animal Research Ethical Committee (Dnr. N452/11) and is comprehensively described in Dahl et al.. Anesthesia was induced via an intramuscular injection of ketamine hydrochloride (approximately 10 mg/kg, Ketalar, Pfizer AB, Stockholm, Sweden) and maintained with a mixture of sevoflurane (2–8%, Abbott Scandinavia AB, Solna, Sweden), oxygen (around 40%), and medical air following endotracheal intubation. The anesthesia level was continuously monitored during the experiment. The head was stabilized using a fixation device, and the body temperature was regulated with a Bair Hugger model 505 (Arizant Healthcare, St. Paul, MN, USA), with continuous monitoring via an esophageal thermometer. ECG, heart rate, blood pressure, respiratory rate, and oxygen saturation were all continuously monitored throughout the experiments.
Two PET measurements were performed on the same experimental day in each of the two monkeys. Baseline PET measurements were conducted using [^11C]AZD2423 with doses of 164 MBq and 157 MBq. A pretreatment PET measurement was also performed, during which an infusion of unlabeled AZD2423 (3.0 mg/kg) occurred over 10 min, starting 30 min before the injection of [^11C]AZD2423 (90 MBq and 158 MBq). In each PET experiment, the radioligand was administered as an intravenous bolus injection over 5 s, coinciding with the start of PET data acquisition. Radioactivity in the brain was continuously measured for 123 min using the high-resolution research tomograph (HRRT; Siemens Molecular Imaging, Knoxville, TN, USA), following a preprogrammed sequence of 34 frames. Arterial blood samples were collected at specified time points (4, 15, 30, 45, and 90 min) and analyzed for radioactivity in blood and plasma, as well as for the presence of the remaining parent compound, [^11C]AZD2423.
The Regions of Interest (ROIs) were delineated manually on MRI images of each NHP for the whole brain, thyroid gland, parotid gland, and submandibular gland. The summed PET images of the entire duration were co-registered with the MRI image of the individual NHP. After applying the co-registration parameters to the dynamic PET data, time–activity curves were generated for all ROIs for each PET measurement. The average SUV was calculated for each ROI. Target occupancy was estimated using the volume of distribution (VT) calculated by a two-tissue compartment model (2TC) with metabolite-corrected plasma radioactivity.

[5] = Stability of the radioligand in formulation; assay type: physicochemical; conditions: 9% ethanol in PBS, pH 7.4
Experimental: Carbon-11 labeled radioligands for in vivo PET imaging studies are typically produced in giga-becquerel quantities. As our goal was to develop a synthesis methodology suitable for routine radioligand production, the [^11C]AZD2423 synthesis process was fully automated to improve its reliability and reproducibility. The complete process was performed using a previously described [^11C]CO prototype synthesis apparatus (GEMS, Uppsala, Sweden), which included the initial formation of the crude [^11C]AZD2423 product, followed by its isolation by semipreparative high-performance liquid chromatography (HPLC), solid-phase extraction (SPE), and sterile filtration to yield the formulated product. Using these conditions, [^11C]AZD2423 was prepared with radioactivities exceeding 1 GBq and the radiochemical purity (RCP) was greater than 99%. The synthesis process took approximately 40 min, and the molar activity (Am) at the time of injection ranged from 15 to 20 GBq/μmol (405 to 540 Ci/mmol). […] The average radiochemical yield for the synthesis of [^11C]AZD2423 was 7.4 ± 0.6% (n = 4, relative to the [^11C]CO2 at the start of synthesis). The identity of the labeled compound was verified by co-injecting it with a reference standard.

[6] = parameters: method as in PMID 26116114; conditions: brain tissue in vitro; cited from earlier work
CCR1 = system: CCR1; parameters: method as in PMID 23523116, PMID 29913894; conditions: no method in this paper; cited from earlier work
CCR2 [7] = system: CCR2; parameters: method as in PMID 33205603; conditions: cited from earlier work
[8] = pretreatment AZD2423 3 mg/kg relative to baseline
[9] = pretreatment AZD2423 3.0 mg/kg relative to baseline
[10] = pretreatment AZD2423 3 mg/kg, n = 2

## CC(C)(C)N1CCNC(C(=O)N2CCN([11C](=O)Nc3ccc(Cl)c(F)c3)CC2)C1 (stereo not drawn) [[^11C]AZD2423]
CCR2 [1]
  IC50: 2.6 nM
[2]
  LogD: 1.85
  pKa: 7.9
Other GPCR
  Selectivity over other GPCR: > 500 fold
CCR5
  IC50: > 510 nM
[3]; 10 min after iv injection
  Parent radioligand, share of radioactivity in plasma: approximately 80%
[3]; 90 min after iv injection
  Parent radioligand, share of radioactivity in plasma: approximately 60%
CCR2 [4]; NHP, after pretreatment with unlabeled AZD2423 3 mg/kg, n = 2
  SUVpeak brain: 0.4
CCR2 [4]; NHP, baseline, n = 2
  SUVpeak brain: 0.4
  SUVpeak parotid gland: 3.4
  SUVpeak submandibular gland: 4.4
  SUVpeak thyroid gland: 3.3
CCR2 [4]; baseline, n = 2
  Average VT parotid gland: 111.1
  Average VT thyroid gland: 53.1
CCR2 [4]; [8]
  Percentage decrease of VT parotid gland: 62.6%
  Percentage decrease of VT thyroid gland: 63.4%
CCR2 [4]; [9]
  Percentage reduction of binding in the parotid gland (AUC ratio): 51.2%
  Percentage reduction of binding in the submandibular gland (AUC ratio): 49%
CCR2 [4]; [10]
  Average VT parotid gland: 41.6
  Average VT thyroid gland: 19.4
[5]
  stability in formulation: up to 60 min
[6]
  Fu (brain) / brain slice distribution: 0.045
CCR1
  IC50: > 10000 nM

## CC(C)(C)N1CCNC(C(=O)N2CCN(C(=O)Nc3ccc(Cl)c(F)c3)CC2)C1 (stereo not drawn) [AZD2423]
CCR2 [1]
  IC50: 2.6 nM
[2]
  LogD: 1.85
[6]
  Fu (brain) / brain slice distribution: 0.045

## CN(CCc1ccc(NC(=O)C2=Cc3cc(-c4ccc(OCCCCC[18F])cc4)ccc3CCC2)cc1)C1CCOCC1 [[^18F]6b]
CCR2 [7]
  in vitro affinity to CCR2: 14 nM
